Assay results taken from patent US20040053822A1, “Inducing cellular immune responses to mage2/3 using peptide and nucleic acid compositions” (priority 2002, published 2004).
pIC50: −log10 of the molar value. Like-named read-outs stand apart in the source and are kept apart here. Residues, ends and D or L forms follow the SMILES beside them.

Key:
[1] = system: 0.221A2.1 cell line (peptide-loaded target); experiment: Primary CTL induction from normal donor PBMC, 51Cr release on peptide-pulsed targets; format: cell-based, human
Procedure: (§1) The melanoma cells were treated with 100 U/ml IFNγ (Genzyme) for 48 hours at 37° C. before use as targets in the ^51Cr release and in situ IFNγ assays.
The monocytes were purified by plating 10×10^6 PBMC/well in a 6-well plate. After 2 hours at 37° C., the non-adherent cells were removed by gently shaking the plates and aspirating the supernatants. The wells were washed a total of three times with 3 ml RPMI to remove most of the non-adherent and loosely adherent cells. Three ml of complete medium containing 50 ng/ml of GM-CSF and 1,000 U/ml of IL4 were then added to each well. DC were used for CTL induction cultures following 7 days of culture.
Induction of CTL with DC and Peptide: CD8+ T-cells were isolated by positive selection with Dynal immunomagnetic beads (Dynabeads® M-450) and the detacha-bead® reagent. Typically about 200-250×10^6 PBMC were processed to obtain 24×10^6 CD8^+ T-cells (enough for a 48-well plate culture). Briefly, the PBMCs were thawed in RPMI with 30 μg/ml DNAse, washed once with PBS containing 1% human AB serum and resuspended in PBS/1% AB serum at a concentration of 20×10^6 cells/ml. The magnetic beads were washed 3 times with PBS/AB serum, added to the cells (140 μl beads/20×10^6 cells) and incubated for 1 hour at 4° C. with continuous mixing. The beads and cells were washed 4× with PBS/AB serum to remove the nonadherent cells and resuspended at 100×10^6 cells/ml (based on the original cell number) in PBS/AB serum containing 100 μ/ml detacha-bead® reagent and 30 μg/ml DNAse. The mixture is incubated for 1 hour at room temperature with continuous mixing. The beads were washed again with PBS/AB/DNAse to collect the CD8+ T-cells. The DC were collected and centrifuged at 1300 rpm for 5-7 minutes, washed once with PBS with 1% BSA, counted and pulsed with 40 μg/ml of peptide at a cell concentration of 1-2×10^6/ml in the presence of 3 μg/ml β2- microglobulin for 4 hours at 20° C. The DC were then irradiated (4,200 rads), washed 1 time with medium and counted again.
Setting up induction cultures: 0.25 ml cytokine-generated DC (@1×10^5 cells/ml) were co-cultured with 0.25 ml of CD8+ T-cells (@2×10^6 cell/ml) in each well of a 48-well plate in the presence of 10 ng/ml of IL-7. rHuman IL10 was added the next day at a final concentration of 10 ng/ml and rhuman IL2 was added 48 hours later at 10 IU/ml.
Restimulation of the induction cultures with peptide-pulsed adherent cells: Seven and fourteen days after the primary induction the cells were restimulated with peptide-pulsed adherent cells. The PBMCS were thawed and washed twice with RPMI and DNAse. The cells were resuspended at 5×10^6 cells/ml and irradiated at ˜4200 rads. The PBMCs were plated at 2×10^6 in 0.5 ml complete medium per well and incubated for 2 hours at 37° C. The plates were washed twice with RPMI by tapping the plate gently to remove the nonadherent cells and the adherent cells pulsed with 10 μg/ml of peptide in the presence of 3 μg/ml β2 microglobulin in 0.25 ml RPMI/5% AB per well for 2 hours at 37° C. Peptide solution from each well was aspirated and the wells were washed once with RPMI. Most of the media was aspirated from the induction cultures (CD8+ cells) and brought to 0.5 ml with fresh media. The cells were then transferred to the wells containing the peptide-pulsed adherent cells. Twenty four hours later rhuman IL10 was added at a final concentration of 10 ng/ml and rhuman IL2 was added the next day and again 2-3 days later at 50 IU/ml (Tsai et al., Critical Reviews in Immunology 18(l-2):65-75, 1998). Seven days later the cultures were assayed for CTL activity in a ^51Cr release assay. In some experiments the cultures were assayed for peptide-specific recognition in the in situ IFNγ ELISA at the time of the second restimulation followed by assay of endogenous recognition 7 days later. After expansion, activity was measured in both assays for a side by side comparison. […]

[2] = system: melanoma cell lines (624 mel and 888 mel); experiment: Primary CTL induction, 51Cr release on tumor targets (endogenous recognition); format: cell-based, human
Procedure: as §1
Restimulation of the induction cultures with peptide-pulsed adherent cells: Seven and fourteen days after the primary induction the cells were restimulated with peptide-pulsed adherent cells. The PBMCS were thawed and washed twice with RPMI and DNAse. The cells were resuspended at 5×10^6 cells/ml and irradiated at ˜4200 rads. The PBMCs were plated at 2×10^6 in 0.5 ml complete medium per well and incubated for 2 hours at 37° C. The plates were washed twice with RPMI by tapping the plate gently to remove the nonadherent cells and the adherent cells pulsed with 10 μg/ml of peptide in the presence of 3 μg/ml β2 microglobulin in 0.25 ml RPMI/5% AB per well for 2 hours at 37° C. Peptide solution from each well was aspirated and the wells were washed once with RPMI. Most of the media was aspirated from the induction cultures (CD8+ cells) and brought to 0.5 ml with fresh media. The cells were then transferred to the wells containing the peptide-pulsed adherent cells. Twenty four hours later rhuman IL10 was added at a final concentration of 10 ng/ml and rhuman IL2 was added the next day and again 2-3 days later at 50 IU/ml (Tsai et al., Critical Reviews in Immunology 18(l-2):65-75, 1998). Seven days later the cultures were assayed for CTL activity in a ^51Cr release assay. In some experiments the cultures were assayed for peptide-specific recognition in the in situ IFNγ ELISA at the time of the second restimulation followed by assay of endogenous recognition 7 days later. After expansion, activity was measured in both assays for a side by side comparison.
Seven days after the second restimulation, cytotoxicity was determined in a standard (5 hr) ^51Cr release assay by assaying individual wells at a single E:T. Peptide-pulsed targets were prepared by incubating the cells with 10 μg/ml peptide overnight at 37° C.
Adherent target cells were removed from culture flasks with trypsin-EDTA. Target cells were labelled with 200 μCi of ^51Cr sodium chromate (Dupont, Wilmington, Del.) for 1 hour at 37° C. […] Target cells.(100 μl) and 100 μl of effectors were plated in 96 well round-bottom plates and incubated for 5 hours at 37° C. At that time, 100 μl of supernatant were collected from each well and percent lysis was determined according to the formula: [(cpm of the test sample−cpm of the spontaneous ^51Cr release sample)/(cpm of the maximal ^51Cr release sample−cpm of the spontaneous ^51Cr release sample)]×100. Maximum and spontaneous release were determined by incubating the labelled targets with 1% Trition X-100 and media alone, respectively.
CTL Expansion. […] The cells were split if the cell concentration exceeded 1×10^6/ml and the cultures were assayed between days 13 and 15 at E:T ratios of 30, 10, 3 and 1:1 in the ^51Cr release assay or at 1×10^6/ml in the in situ IFNγ assay using the same targets as before the expansion.
The A2-supermotif cross-reactive binding peptides that were selected for further evaluation were tested in the cellular assay for the ability to induce peptide-specific CTL in normal individuals.

HLA-B*0702 = HLA-B*0702 (Homo sapiens, UniProt P01889); experiment: Purified HLA class I peptide binding assay, B*0702
HLA-B*5401 = HLA-B*5401 (Homo sapiens, UniProt P01889, A329T/C349S/D138N/D201E/E176V/E187T/E204Q/E69G/I76V/K202T/L119W/R155S/R180L/S121T/S35A/S48A/V127L/V306I/V36M/Y140L); experiment: Purified HLA class I peptide binding assay, B*5401
HLA-B*3501 = HLA-B*3501 (Homo sapiens, UniProt P01889, A329T/A93T/A95T/C349S/D201E/D98Y/E176V/E187L/E204Q/E69T/I218V/K202T/L119I/Q94N/R155S/R180L/S121R/S35A/S48A/T118I/V127L/V306I/V36M/Y140S/Y91F); experiment: Purified HLA class I peptide binding assay, B*3501
HLA-B*5101 (B51) = HLA-B*5101 (B51) (Homo sapiens, UniProt P01889, A329T/A93T/A95T/C349S/D138N/D201E/D98Y/E187L/E204Q/E69T/G107R/I218V/K202T/L105A/L119W/N104I/Q94N/R106L/R155S/R180L/S101N/S121T/S35A/S48A/V306I/V36M/Y195H/Y91F); experiment: Purified HLA class I peptide binding assay, B51; conditions: binding affinity, HLA-B7 supermotif-bearing peptides
HLA-B*5301 = HLA-B*5301 (Homo sapiens, UniProt P01889, A329T/A93T/A95T/C349S/D201E/D98Y/E176V/E187L/E204Q/E69T/G107R/I218V/K202T/L105A/L119I/N104I/Q94N/R106L/R155S/R180L/S101N/S121R/S35A/S48A/T118I/V127L/V306I/V36M/Y140S/Y91F); experiment: Purified HLA class I peptide binding assay, B*5301
[3] = number of donors positive over the total number of donors tested
[4] = number of donors positive over total tested, tumor targets
[5] = binding affinity, HLA-B7 supermotif-bearing peptides

| Structure (SMILES) | CTL Wild-type [1, 3] | CTL Tumor [2, 4] | also measured |
| --- | --- | --- | --- |
| CC(C)C[C@H](NC(=O)[C@H](CC(C)C)NC(=O)[C@H](Cc1ccccc1)NC(=O)[C@H](Cc1c[nH]cn1)NC(=O)[C@@H](NC(=O)[C@H](CC(C)C)NC(=O)[C@H](CCC(=O)O)NC(=O)[C@H](C)NC(=O)[C@@H](NC(=O)[C@@H](N)CCCCN)C(C)C)C(C)C)C(=O)O | 0/1 | 0/1^ | – |
| CC[C@H](C)[C@H](N)C(=O)N[C@@H](CCSC)C(=O)N1CCC[C@H]1C(=O)N[C@@H](CCCCN)C(=O)N[C@@H](C)C(=O)NCC(=O)N[C@@H](CC(C)C)C(=O)N[C@@H](CC(C)C)C(=O)N[C@H](C(=O)N[C@H](C(=O)N[C@H](C(=O)O)C(C)C)[C@@H](C)CC)[C@@H](C)CC | 3/4 | 0/3^ | – |
| CSCC[C@H](NC(=O)[C@@H](N)CCCCN)C(=O)N[C@H](C(=O)N[C@@H](CCC(=O)O)C(=O)N[C@@H](CC(C)C)C(=O)N[C@H](C(=O)N[C@@H](Cc1c[nH]cn1)C(=O)N[C@@H](Cc1ccccc1)C(=O)N[C@@H](CC(C)C)C(=O)N[C@@H](CC(C)C)C(=O)N[C@@H](CC(C)C)C(=O)O)C(C)C)C(C)C | 1/1 | 0/1^ | – |
| CC(C)C[C@H](NC(=O)[C@H](Cc1ccc(O)cc1)NC(=O)[C@H](CCC(=O)O)NC(=O)[C@H](CO)NC(=O)[C@H](C)NC(=O)[C@@H](N)CCCCN)C(=O)N[C@@H](CCC(N)=O)C(=O)N[C@@H](CC(C)C)C(=O)N[C@H](C(=O)O)C(C)C | 2/4 | 0/2^ | – |
| CC[C@H](C)[C@H](NC(=O)CNC(=O)[C@H](Cc1ccccc1)NC(=O)[C@@H](NC(=O)[C@H](CC(C)C)NC(=O)[C@@H](N)CCC(N)=O)C(C)C)C(=O)N[C@@H](CCC(=O)O)C(=O)N[C@@H](CC(C)C)C(=O)N[C@@H](CCSC)C(=O)N[C@@H](CCC(=O)O)C(=O)N[C@H](C(=O)O)C(C)C | – | – | CTL Tumor ([2]; donors positive over total tested, positive result seen after the second restim.): 1/3^2 |
| CSCC[C@H](NC(=O)[C@@H](N)CCCCN)C(=O)N[C@H](C(=O)N[C@@H](CCC(=O)O)C(=O)N[C@@H](CC(C)C)C(=O)N[C@H](C(=O)N[C@@H](Cc1c[nH]cn1)C(=O)N[C@@H](Cc1ccccc1)C(=O)N[C@@H](CC(C)C)C(=O)N[C@@H](CC(C)C)C(=O)O)C(C)C)C(C)C | 1/1 | 0/1^ | – |
| CSCC[C@H](NC(=O)[C@@H](N)CCCCN)C(=O)N[C@H](C(=O)N[C@@H](CCC(=O)O)C(=O)N[C@@H](CC(C)C)C(=O)N[C@H](C(=O)N[C@@H](Cc1c[nH]cn1)C(=O)N[C@@H](Cc1ccccc1)C(=O)N[C@@H](CC(C)C)C(=O)O)C(C)C)C(C)C | 1/1 | 0/1^ | – |
| CC[C@H](C)[C@H](NC(=O)[C@H](Cc1ccc(O)cc1)NC(=O)[C@H](CC(C)C)NC(=O)[C@H](Cc1c[nH]cn1)NC(=O)CNC(=O)[C@@H](NC(=O)[C@@H]1CCCN1C(=O)[C@@H](N)Cc1ccccc1)[C@@H](C)CC)C(=O)N[C@@H](Cc1ccccc1)C(=O)N[C@@H](C)C(=O)O (H-FPIGHLYIFA-OH; N-terminus and C-terminus assumed) | – | – | pIC50 (HLA-B*0702; [5]): 7.41; pIC50 (HLA-B*5401; [5]): 9.40; pIC50 (HLA-B*3501; [5]): 7.29; pIC50 (HLA-B*5101 (B51); read-out: B*5101 nM): 7.25; pIC50 (HLA-B*5301; [5]): 6.75 |
| CC[C@H](C)[C@H](NC(=O)CNC(=O)[C@H](Cc1ccccc1)NC(=O)[C@@H](NC(=O)[C@H](CC(C)C)NC(=O)[C@H](CCC(N)=O)NC(=O)[C@H](CC(C)C)NC(=O)[C@@H](N)Cc1ccc(O)cc1)C(C)C)C(=O)N[C@@H](CCC(=O)O)C(=O)N[C@H](C(=O)O)C(C)C [YLQLVFG1EV] | – | – | CTL Wild-type ([1]; Number of donors yielding a positive response/total tested): 313 |
| CC[C@H](C)[C@H](NC(=O)[C@H](Cc1ccc(O)cc1)NC(=O)[C@H](CC(C)C)NC(=O)[C@H](Cc1c[nH]cn1)NC(=O)[C@H](CO)NC(=O)[C@@H](NC(=O)[C@@H]1CCCN1C(=O)[C@@H](N)Cc1ccccc1)[C@@H](C)CC)C(=O)O | – | – | pIC50 (HLA-B*0702): 6.67; pIC50 (HLA-B*5401): 7.23; pIC50 (HLA-B*3501): 6.18; pIC50 (HLA-B*5101 (B51); B*5101 nM): 7.38; pIC50 (HLA-B*5301): 6.45 |
